# Tested on: E. coli strain DH5α
# Test: Minimal inhibitory concentration (MIC) against E. coli
# Assay type: cell-based
# Settings: Escherichia coli; 2×YT broth, 37° C., 18 hours; lowest drug concentration that inhibited visible growth
# Method: Minimal inhibitory concentrations (MIC) of inhibitors against E. coli strain DH5α (Genotype; F-φ80dlacZΔM15Δ(lacZYA-argF)U169 deoR recA1 endA1 hsdR17(rk^−,mk^+)phoA supE44λ^− thi-1 gyrA96 relA1) obtained from GibcoBRL Life Technologies, Enterobacter cloacae (American Type Culture Collection number 13047), Klebsiella pneumoniae (American Type Culture Collection number 13883) or Staphylococcus capitis (American Type Culture Collection number 35661) were determined as follows. Stock solutions of test compound (Compounds 1 and 2 from Examples 1 and 2 respectively (both isomer A)) and three standard laboratory antibiotics, carbenicillin (Sigma, catalogue No. C3416), kanamycin (Sigma, catalogue No. K4000) and chloramphenicol (Sigma, catalogue No. C1919), were prepared by dissolution of each compound in dimethylsulfoxide at 10 mM. […] Cell densities were adjusted to absorbance at 660 nm (A660)=0.1; the optical density-standardised preparations were diluted 1:1000 in 2×YT broth; and each well inoculated with 0.05 ml of the diluted bacteria. […] The MIC (μM) was recorded as the lowest drug concentration that inhibited visible growth.
compound,measurement,value
CCCC[C@H](CN(O)C=O)C(=O)N(C)C1CCN(C)CC1 [Example 7],MIC,12.5 µM

# Source: patent US6908911B1, “Antibacterial agents” (British Biotech Pharmaceuticals Limited, priority 1999, dated 2005)
